Reference: patent publication EP0721774A2, “Anti-microbial compositions” (UNILEVER N.V., priority 1994, dated 1996)

How the values were obtained:
Candida = test: Minimum inhibitory concentration (MIC), spot dilution on lawned SDM agar plates; type: cell-based
Procedure: (§1) The minimum inhibitory concentrations (MICs) of these peptides were determined as follows: Organisms were subcultured from BHIS agar into BHI broth and incubated at 37°C for 2 days. They were then diluted 1/100 in fresh broth and flooded onto pre-dried SDM agar plates. Excess culture was removed by pipetting. Plates were then allowed to dry at room temperature. The various synthesised peptides were dissolved in sterile water at a concentration of 1 %. Doubling dilutions, in water, were carried out down to 0.03 %. 15 µl of each dilution was spotted onto the lawned cultures, allowed to dry and then the plates were incubated at 37°C for 2 days. Plates were then read for zones of inhibition. The MIC was taken as the lowest dilution still causing visible growth inhibition.
(§2) All organisms were routinely grown on supplemented Brain Heart Infusion agar (Difco) and when appropriate subcultured into Brain Hearth Infusion broth (Difco). For MIC assays a chemically defined solid medium (SDM) was used^(5).
Candida strains 83 and 41 were isolated from oral ecology studies.

Lactobacilli = test: as above; type: cell-based
Procedure: as §1, §2
Lactobacilli were from the in house Colworth Microbial Culture Collection. SB115 and SB116 were L.casei var. rhamnosus, SB82 had been classified as L.plantarum, SB83 and SB85 were Lactobacillus sp. and SB 9 was L.casei.

S.salivarius = test: as above; type: cell-based, Steptococcus salivarius
Procedure: as §1, §2
Steptococcus salivarius strans were all wild plaque isolates from oral ecology studies.

Actinomyces = test: as above; type: cell-based
Procedure: as §1, §2
Actinomyces 12/2, 69A and 41A were plaque isolates from oral ecology studies.

S.mutans = test: as above; type: cell-based, Streptococcus mutans
Procedure: as §1, §2
The organisms used were the following: Streptococcus mutans strains were clinical isolates, from the plaque of panellists in oral ecology studies. […] SM11060 belonged to serotype f and SM10919 belonged to serotype g. Strain SMB13 (serotype d) was supplied by PHLS, Porton Down.

C. albicans = conditions: compared among histatins -1, -3 and -5; cited from earlier work
S.sanguis = test: Minimum inhibitory concentration (MIC), spot dilution on lawned SDM agar plates; type: cell-based, Streptococcus sanguis
Procedure: as §1, §2
Streptococcus sanguis strains were all clinical isolates from the plaque of panellists in ongoing oral ecology studies.

Substance: Histatin-5
- MIC (Candida; strain 41): >1.0%
- MIC (Candida; strain 83): >1.0%
- MIC (Lactobacilli; strain SB9 (L.casei)): 1.0%
- MIC (Lactobacilli; strain SB81): 0.125%
- MIC (Lactobacilli; strain SB82 (L.plantarum)): 0.125%
- MIC (Lactobacilli; strain SB116 (L.casei var. rhamnosus)): 1.5%
- MIC (S.salivarius; strain 2/7): growth stimulated
- MIC (S.salivarius; strain 2/27): growth stimulated
- MIC (S.salivarius; strain 14/9): growth stimulated
- MIC (Actinomyces; strain 10A): 1.0%
- MIC (Actinomyces; strain 11A): 0.5%
- MIC (Actinomyces; strain 16A): growth stimulated
- MIC (Actinomyces; strain 41A): 1.0%
- MIC (Actinomyces; strain 69A): growth stimulated
- MIC (Actinomyces; strain 71A): 0.5%
- MIC (S.mutans; strain SM1dg): 1.0%
- MIC (S.mutans; strain SM24dg): 1.0%
- MIC (S.mutans; strain SM28B): 1.0%
- MIC (S.mutans; strain SM44A): 0.5%
- MIC (S.mutans; strain SM84C): 1.0%
- MIC (S.mutans; strain SM148dg): 0.5%
- MIC (S.mutans; strain SM189): 0.5%
- MIC (S.mutans; strain SM211): 0.25%
- MIC (S.mutans; strain SM6715): 0.5%
- MIC (S.mutans; strain SM10449): 0.25%
- MIC (S.mutans; strain SMNW1): 1.0%
- MIC (S.mutans; strain SMNW6): 1.0%
- MIC (S.mutans; strain SMNW10): 0.5%
- ability to kill the pathogenic yeast C. albicans (C. albicans): most effective
- MIC (S.sanguis; strain 6/9): growth stimulated
- MIC (S.sanguis; strain 10/23): growth stimulated
- MIC (S.sanguis; strain SS209): growth stimulated
